Results on 3 compounds are retold here after ChEMBL document CHEMBL1201862, “PubChem BioAssay data set” (2004).

Each structure is given as a SMILES string.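 48-hour exposure; five concentrations; linearly interpolated endpoints. GI50 is the concentration that inhibits growth by half.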 The source made the active and inactive calls. No stated cut-off is given here; in the data, active = GI50 up to about 1.1 µM and inactive = higher.

Some test systems named below: NCI-H460; CCRF-CEM; UACC-257; NCI-H23; BT-549; SK-MEL-28; MDA-MB-231; HCT-15; HL-60; 786-0; U-251; HOP-92; LOX IMVI; HCC 2998; SW-620; MDA-N; A549; KM12; SNB-19; CAKI-1.
What all share (experiment): growth of human tumour cells (NCI), 48 h

With `CC(C)(C)OC(=O)NC1CC=CCC1NC(=O)OC(C)(C)C` (stereo not given), the GI50 in the assay on NCI-H460, with CCRF-CEM, with UACC-257, with NCI-H23, in the assay with BT-549 and in the assay on SK-MEL-28 was > 100 µM (inactive) throughout. Besides, the GI50 in the assay with MDA-MB-231 was > 100 µM (inactive); in the assay with HCT-15, above 100 µM; in the assay with HL-60, > 100 µM (inactive); in the assay on 786-0, > 100 µM (inactive); in the assay on U-251, > 100 µM (inactive); in the assay on HOP-92 it was > 100 µM (inactive). In addition, the GI50 in the assay with LOX IMVI, with HCC 2998, in the assay with SW-620, with MDA-N, in the assay on A549 and in the assay with KM12 was > 100 µM (inactive) each time. The GI50 with SNB-19 and in the assay with CAKI-1 was > 100 µM (inactive) throughout.
Take `N=C(N)NS(=O)(=O)c1ccc(Nc2c3ccccc3nc3ccc(C(=O)Nc4ccc(S(N)(=O)=O)cc4)cc23)cc1`: the GI50 in the assay on NCI-H460, in the assay on CCRF-CEM, in the assay with UACC-257, in the assay with NCI-H23, in the assay with BT-549 and in the assay on SK-MEL-28 was > 100 µM (inactive) each time. The GI50 is > 100 µM (inactive) with MDA-MB-231; above 100 µM in the assay on HCT-15; > 100 µM (inactive) in the assay on HL-60; > 100 µM (inactive) with 786-0; > 100 µM (inactive) in the assay on U-251; > 100 µM (inactive) in the assay on HOP-92. Further, the GI50 in the assay with LOX IMVI, in the assay on HCC 2998, in the assay with SW-620, with MDA-N, with A549 and in the assay on KM12 was > 100 µM (inactive) each time. For the same compound, the GI50 in the assay on SNB-19 and in the assay on CAKI-1 was > 100 µM (inactive) throughout.
For the compound `N=C(N)c1ccc(/N=N\c2c(O)ccc3c2[nH]c2ccccc23)cc1`, the GI50 in the assay with NCI-H460 was 2.76 µM (inactive); with CCRF-CEM, 0.25 µM (active); with UACC-257, 45.4 µM (inactive); in the assay with NCI-H23 it was 10.2 µM (inactive); in the assay on BT-549 it was 49.8 µM (inactive); in the assay on SK-MEL-28, 18.8 µM (inactive). For the same compound, the GI50 was 2.09 µM (inactive) with MDA-MB-231; 39.1 µM in the assay on HCT-15; 1.15 µM (inactive) in the assay on HL-60; 1.69 µM (inactive) in the assay with 786-0; 1.95 µM (inactive) with U-251; 98.6 µM (inactive) in the assay on HOP-92. Further, the GI50 in the assay on LOX IMVI was 2.24 µM (inactive); in the assay with HCC 2998 it was 1.76 µM (inactive); in the assay on SW-620, 2.32 µM (inactive); in the assay with MDA-N, 6.3 µM (inactive); in the assay with A549, 2.34 µM (inactive); with KM12 it was 1.85 µM (inactive). In addition, the GI50 in the assay with SNB-19 was 2.47 µM (inactive); in the assay with CAKI-1, > 50.8 µM (inactive).
